Measured values from patent US20140130208A1, “METHODS AND MEANS TO PRODUCE ABIOTIC STRESS TOLERANT PLANTS” (VIB VZW, priority 2011, published 2014).

Columns and labels:
[1] = system: CDKA; assay: CDKA activity assay on protein extracted from proliferating third leaves; type: in vivo, Arabidopsis thaliana; conditions: wild type; 10 and 24 h after transfer to 25 mM mannitol or 5 μM ACC
Experimental: (§1) At 9 DAS, when the third leaf is fully proliferating, seedlings were transferred to plates containing control medium or medium supplemented with 25 mM mannitol (Sigma-Aldrich) or 5 μM ACC (Sigma-Aldrich) by gently lifting the nylon mesh with forceps. For the CDKA activity assay the transfer was done at 11 DAS; at this stage, the third leaf is still dividing and can be quickly harvested without the need for RNAlater solution (see below) that would inhibit CDKA activity. All transfers were performed 2-3 h into the day.
Total soluble protein was extracted from 50 leaves by adding extraction buffer (Van Leene et al., 2007) to ground samples, followed by two freeze-thaw steps and two centrifugation steps (20,817 g, 10 min, 4° C.), whereby the supernatant was collected each time. Equal amounts of total protein were incubated with p9^CKS1Hs-sepharose beads (De Veylder et al., 1997) and kinase assays were performed as described (De Veylder et al., 1997) with histone H1 as CDK substrate. To correct for the amount of CDKA protein purified by p9^CKS1Hs-sepharose beads, an aliquot of each sample was used for protein gel blot analysis with primary rabbit anti-PSTAIRE antibodies (Santa Cruz) (diluted 1:5000) and a secondary horseradish peroxidase-conjugated donkey anti-rabbit antibodies (GE-Healthcare) (diluted 1:10,000). Proteins were detected by chemiluminescence (Western Lightning Plus ECL, PerkinElmer Life Sciences). CDK activity and CDKA amount were quantified with ImageJ v1.41o. Control samples were arbitrarily set at 100%.

[2] = system: Arabidopsis thaliana third true leaf; assay: Growth (kinematic) analysis of the third leaf after transfer of seedlings to mannitol- or ACC-containing medium; type: in vivo; conditions: for reduction in leaf area: 72 h after transfer to mannitol (12 DAS)
Experimental: Arabidopsis seedlings were germinated and grown on nylon meshes overlaying control medium until 9 days after stratification (DAS), when the third true leaf is fully proliferating (Skirycz et al., 2010), and subsequently transferred to control or mannitol-containing medium (FIGS. 1A to 10). Kinematic analysis was performed, whereby leaves were harvested daily throughout development of leaf 3 (9-20 DAS) and based on drawings of the abaxial epidermis cell number, cell area, number of guard cells and cell division and cell expansion rates were calculated (De Veylder et al., 2001). […] Leaf and plant morphology were not altered by mannitol (FIG. 2C). Cell expansion was also affected by stress and the reduced final leaf area was a combination of fewer and smaller cells (FIG. 2D). The stomatal index, which represents the number of stomata as a fraction of the total number of cells, was reduced as well (FIG. 2E). To learn more about the mechanisms underlying the rapid reduction of cell division upon stress onset, we harvested leaf samples daily after transfer. As a measure of cellular differentiation, the ploidy distribution was examined by flow cytometry. […] In stressed leaves, 4C nuclei started to accumulate approximately one day earlier than in controls at the expense of 2C nuclei (FIG. 3A). Analogously, the number of 8C nuclei increased sharply at 14 DAS in stressed leaves, but only at 15 DAS in control samples (FIG. 3A). Again, transfer itself had no effect on ploidy levels (not shown). […] This observation was further investigated with a CYCB1;1:Dbox-GUS reporter line. Staining for CYCB1;1:Dbox-GUS activity visualizes cells at the G2-to-M transition, reflecting mitotic activity (Colón-Carmona et al., 1999). The most apparent differences were observed 48 h after transfer. […] While the relative size of the cell proliferation zone was similar in mannitol-treated leaves, the remaining proliferating cells were found in a dispersed pattern throughout this zone. […] Within a few days after transfer, division rates adapted to the new conditions and compensation effects were observed.
Seedlings of Arabidopsis thaliana (L.) Heyhn. ecotype Columbia-0 (Col-0) were grown in vitro in half-strength Murashige and Skoog medium (Murashige and Skoog, 1962), supplemented with 1% sucrose under a 16-h day (110 μmol m^−2 s^−1) and 8-h night regime. Plates were overlaid with nylon mesh (Prosep, Zaventem, Belgium) of 20 μm pore size to avoid that roots grew into the medium. Depending on the experiment, 32 or 64 seeds were equally distributed on a 150-mm diameter plate. Mutant plants were grown together with their wild-type controls on the same plate.
as §1
Growth analysis was performed on the third true leaf harvested at different time points after transfer. After clearing with 70% ethanol, leaves were mounted in lactic acid on microscopic slides. For each experiment, 8-12 leaves were photographed with a binocular, and epidermal cells (40-300) were drawn for four representative leaves with a DMLB microscope (Leica) fitted with a drawing tubus and a differential interference contrast objective. Photographs of leaves and drawings were used to measure leaf and cell area, respectively, with ImageJ v1.41o (NIH; http://rsb.info.nih.gov/ij/), from which the cell numbers were calculated. The stomatal index was defined as the percentage of stomata per all cells. […]

[3] = transfer at 9 DAS to 25 mM mannitol or 5 μM ACC, leaf 3

Question: For OC[C@@H](O)[C@@H](O)[C@H](O)[C@H](O)CO [mannitol], which CDKA activity [1] is on record?
Answer: decreased as early as 10 h after stress onset and remained low at 24 h

Question: What about the “leaf and plant morphology” value ([2]; 25 mM mannitol) of the same molecule?
Answer: not altered

Question: What about the “reduction of leaf area” value ([2]; 25 mM mannitol in growth medium) of the same molecule?
Answer: approximately 50%

Question: What about the “reduction in leaf area” value ([2]; ein5.1 mutant) of the same molecule?
Answer: ~20%

Question: What about the “reduction in leaf area” value ([2]; etr1.3 mutant) of the same molecule?
Answer: ~30%

Question: And the cell proliferation rates [2, 3]?
Answer: reduced proliferation rates

Question: What about the stomatal index [2, 3] of the same molecule?
Answer: reduced

Question: What about the “reduction in leaf area” value ([2]; wild type) of the same molecule?
Answer: ~45%
